Several values for one entry are separate records, joined by “and”; a condition that tells them apart may be missing. Identical values can stand only once.
target: T1, h-11βHSD1 (Homo sapiens, UniProt P28845); assay: 11βHSD1 enzyme assay (SPA, 3H-cortisone to 3H-cortisol); assay type: biochemical; details: extract of yeast transformed with h-11βHSD1; 120 nM 3H-cortisone, 4 mM β-NADPH, 60 min at 30° C.; several determinations per cell separated by ';'
T1 construct: made in house
Description: ^3H-cortisone and anti-rabbit Ig coated scintillation proximity assay (SPA) beads were purchased from Amersham Pharmacia Biotech, β-NADPH was from Sigma and rabbit anti-cortisol antibodies were from Fitzgerald. An extract of yeast transformed with h-11βHSD1 (Hutt et al., FEBS Lett., 441, 25 (1998)) was used as the source of enzyme. The test compounds were dissolved in DMSO (10 mM). All dilutions were performed in a buffer containing 50 mM TRIS-HCl (Sigma Chemical Co), 4 mM EDTA (Sigma Chemical Co), 0.1% BSA (Sigma Chemical Co), 0.01% Tween-20 (Sigma Chemical Co) and 0.005% bacitracin (Novo Nordisk A/S), pH=7.4. Optiplate 96 wells plates were supplied by Packard. The amount of ^3H-cortisol bound to the SPA beads was measured on TopCount NXT, Packard.
h-11βHSD1, 120 nM ^3H-cortisone, 4 mM β-NADPH, antibody (1:200), serial dilutions of test compound and SPA particles (2 mg/well) were added to the wells. The reaction was initiated by mixing the different components and was allowed to proceed under shaking for 60 min at 30° C. The reaction was stopped be the addition of 10 fold excess of a stopping buffer containing 500 μM carbenoxolone and 1 μM cortisone. Data was analysed using GraphPad Prism software.

T1 sequence (P28845 whole entry): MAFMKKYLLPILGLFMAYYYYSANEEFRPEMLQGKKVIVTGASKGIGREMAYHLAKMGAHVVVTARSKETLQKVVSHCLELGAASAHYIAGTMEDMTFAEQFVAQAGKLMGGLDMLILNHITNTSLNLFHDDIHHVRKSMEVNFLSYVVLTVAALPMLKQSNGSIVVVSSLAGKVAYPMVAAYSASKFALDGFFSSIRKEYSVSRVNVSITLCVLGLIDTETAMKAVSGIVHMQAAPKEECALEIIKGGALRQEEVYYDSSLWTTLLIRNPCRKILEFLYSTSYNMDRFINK

SMILES | IC50
O=C(NC1C2CC3CC1CC(O)(C3)C2)c1ccc(Oc2ccc(Cl)cc2Cl)cc1 (centres unmarked) [Compound 1, 4-(2,4-Dichloro-phenoxy)-N-(5-hydroxy-adamantan-2-yl)-benzamide] | 0.073 µM and 0.081 µM
O=C(NC1C2CC3CC1CC(O)(C3)C2)c1ccc(Oc2ccc(Cl)cn2)cc1 (centres unmarked) [Compound 3, 4-(5-Chloro-pyridin-2-yloxy)-N-(5-hydroxy-adamantan-2-yl)-benzamide] | 0.056 µM and 0.089 µM
O=C(NC1C2CC3CC1CC(CO)(C3)C2)c1ccc(Oc2ccc(Cl)cn2)cc1 (centres unmarked) [Compound 4, 4-(5-Chloro-pyridin-2-yloxy)-N-(5-hydroxymethyl-adamantan-2-yl)-benzamide] | 51 nM (2×) and 56 nM

Results, then the compound that gave them:

IC50 | SMILES
0.259 µM and 0.305 µM | N#Cc1ccc(Oc2ccc(C(=O)NC3C4CC5CC3CC(O)(C5)C4)cc2)nc1 (centres unmarked) [Compound 2, 4-(5-Cyano-pyridin-2-yloxy)-N-(5-hydroxy-adamantan-2-yl)-benzamide]
0.017 µM and 0.027 µM | CN(C(=O)c1ccc(Oc2ccc(Cl)cn2)cc1)C1CCC(CO)CC1 (centres unmarked) [Compound 5, 4-(5-Chloro-pyridin-2-yloxy)-N-(4-hydroxymethyl-cyclohexyl)-N-methyl-benzamide]

— patent US20100137377A1, “NOVEL COMPOUNDS” (SOREN EBDRUP ET AL, priority 2007, published 2010)
